Results from patent US20220056075A1, “METHOD FOR TREATING OPIOID USE DISORDER” (THE ADMINISTRATORS OF THE TULANE EDUCATIONAL FUND, priority 2019, published 2022).
Several values for one entry are separate records, joined by “and”; a condition that tells them apart may be missing. Equal entries are not always repeated. Entries after “also recorded” stand apart in the source; their conditions may differ.

Columns and labels:
[1] = system: Male Sprague Dawley rats; test: Conditioned place preference (CPP), 5-day procedure; type: in vivo, rat; conditions: 5 days of conditioning, 1.8, 3.2, 5.6 mg/Kg i.v.
Experimental: Conditioned Place Preference (CPP) and locomotor activity: Standard CPP chambers (TSE; Chesterfield, Mo.) were used to measure baseline activity and conditioning trials. Baseline activity was measured over 2 days with 4 trials per day (2 in the AM, and 2 in the PM) lasting 20 min each. […] Conditioning trials were conducted for 5 days and tested in an unbiased manner such that drug/environment pairings were counterbalanced for time of drug injection (AM or PM) and compartment (preferred or non-preferred) based on baseline activity. […] This indicates a lack of carry-over effects of drug between sessions. One day following the last conditioning trial, a 20 min test trial was conducted in the same manner as baseline trials in which rats were free to explore both compartments. Change in time spent exploring the drug-paired compartment (test-baseline) was used to indicate preference (or aversion) to the compartment. Approximately 20 min following the final session, rats were perfused and brain samples were taken for immunohistochemical analysis (below). Locomotor activity was assessed by infrared light beams located in the conditioning compartments and the start box. […] Data were recorded in meters and an assessment of locomotor sensitization was made by subtracting the first session from the final session.
Experimenters were blinded to treatment groups.

[2] = system: rats trained to discriminate morphine from vehicle; test: Drug discrimination (DD), morphine-trained rats; conditions: for Response rate impairment %: highest dose tested (5.6 mg/Kg), percent of vehicle responding
Experimental: Drug Discrimination (DD): Rats were food deprived to approximately 85% of the weight of free feeding cohorts to establish operant responding for 45 mg food pellets (Bioserve, Frenchtown, N.J.) in standard operant chambers (MED Associates, St. Albans, Vt.). Rats were fed 10-20 g of standard food after daily DD sessions, and ˜3× the daily amount on weekends to maintain appropriate weight. DD consisted of 3 phases (Krivsky et al., 2006). In phase 1, rats were trained to lever press for food at a fixed ratio (FR) level 1 (i.e., 1 lever press=1 food pellet) using 2 levers with stimulus lights located above each lever and a food hopper between the levers during 120 min sessions. Responding on either lever extinguished the light and delivered a food pellet. […] Once >20 pellets were earned at FR9, sessions were shortened to 20 min and response requirements were set at FR10 and the left or right lever reinforced responding on alternate days. Once >20 pellets were earned on each lever at FR10, rats started phase 2 of DD training.
Only responses on the correct lever were reinforced and responses on the incorrect lever reset the response requirement on the correct lever. Criteria to move to phase 3 were as follows: >20 pellets per session, >90% injection appropriate lever responding, and <9 responses on the incorrect lever before the first food pellet reward.
Two paradigms were utilized to generate substitution curves: cumulative within-session and bolus between-session injections.
During substitution tests, both levers actively delivered food at an FR10 schedule. […] Doses were increased in ¼ log increments, with injections every 20 min followed 15 minutes later by DD sessions lasting 5 min each. […] The advantage of this procedure was that an entire dose-response was generated in one session.
Statistics: PRISM software (GraphPad, San Diego, Calif.) was used for one-way analysis of variance (ANOVA) with Newman-Keuls post-hoc comparisons to compare CPP groups, locomotor effects, hot plate, and DD response rates. Locomotor data recorded during the conditioning sessions were analyzed by 2-way ANOVA (session x drug) and data from the first session were subtracted from the final session to assess locomotor enhancement. Experimenters were blinded to treatment groups.

[3] = system: male rats; test: Maintenance of established oxycodone self-administration (substitution); type: in vivo, rat
Experimental: Self-administration (SA): Self-administration tests were conducted in standard operant chambers (MED Associates, St. Albans, Vt.). Infusions were delivered through TYGON tubing threaded through metal spring leashes and attached to exterior infusion pumps. 3-hour sessions were conducted Monday-Friday during the dark cycle. At the start of each session, the house light was illuminated, and levers extended. […] For the first 5 sessions, rats were trained to lever press for oxycodone (0.1 mg/kg/infusion) on a FR1 reinforcement schedule. For the following 10 sessions, the dose of oxycodone was decreased to 0.05 mg/kg/infusion to increase lever responding.
Maintenance of established oxycodone self-administration: Following acquisition of oxycodone self-administration, animals were split into treatment groups counterbalanced for total oxycodone intake, average number of infusions obtained in the last 3 sessions, and average number of active lever pressings over the last 3 sessions. Ten maintenance sessions were conducted in the same way as oxycodone acquisition except rats were either maintained on 0.1 mg/kg/infusion oxycodone or had drug availability substituted with equi-antinociceptive 1 mg/kg/infusion ZH853 or vehicle.

[4] = system: male and female mice; conditions: acute, equi-antinociceptive doses
[5] = system: glia; conditions: conditions where morphine activates glia; cited from earlier work
[6] = cumulative doses producing maximum antinociceptive effects; cited from earlier work
[7] = system: rats; conditions: cited from earlier work

NC(=O)CNC(=O)[C@@H]1CCC(=O)NCCCC[C@@H](NC(=O)[C@@H](N)Cc2ccc(O)cc2)C(=O)N[C@@H](Cc2c[nH]c3ccccc23)C(=O)N[C@@H](Cc2ccccc2)C(=O)N1 [ZH853, Tyr-c[D-Lys-Trp-Phe-Glu]-Gly-NH2]
conditioned place preference (CPP) or aversion [1]: did not produce CPP (or aversion) at any dose
Response rate impairment % ([2]; bolus injections): 15% and 15.1%
Response rate impairment % ([2]; cumulative injections): 0.8%
response rates for food during test sessions ([2]; i.v., compared to vehicle): not impaired; also recorded: lowest among all compounds tested
self-administration behavior during maintenance sessions ([3]; after acquisition of oxycodone SA, drug continued or substituted, i.v. infusions): the self-administration behavior extinguished over time; also recorded: reduced the number of infusions obtained (C) and active lever responses (D) over maintenance sessions
rate of extinction of self-administration ([3]; substitution for oxycodone): faster than with vehicle substitution
distance traveled (AUC) [4]: did not affect the distance traveled
glial activation [5]: lack of glial activation
motor impairment on the Rotarod [6]: lack of motor impairment
hourly SA intake (peak) ([7]; 12-hour SA sessions, 3 mg/Kg/infusion): 1.1 mg/kg/h
reinforcing effects in SA/CPP procedures ([7]; rat, in vivo): did not produce reinforcing effects in SA/CPP procedures
